Test results as given in the supplement of paper PMC4862054.
Values joined by “and” are separate entries in the source; they are usually repeats but may differ in a detail not shown here. Equal values may be shown once.

Tests used:
Test in all cases: normalised viability (% of control), CellTiter-Blue; higher = more viable cells (about 100 = DMSO control)
Details in all cases: incubation time: 72 h
MDA-MB-468 [1] = system: MDA-MB-468
Protocol: (§1)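 DSRT, CellTiter-Blue viability, 72 h incubation. Signal is normalised to DMSO and benzethonium chloride controls. Value is the normalised response at dose 3.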

Hs578T [2] = system: Hs578T
Protocol: as §1

BT-474 [3] = system: BT-474
Protocol: as §1

DU-4475 [4] = system: DU-4475
Protocol: as §1

HCC1937 [5] = system: HCC1937
Protocol: as §1

MDA-MB-436 [6] = system: MDA-MB-436
Protocol: as §1

CAL-120 [7] = system: CAL-120
Protocol: as §1

MFM-223 [8] = system: MFM-223
Protocol: as §1

CAL-85-1 [9] = system: CAL-85-1
Protocol: as §1

MDA-MB-453 = system: MDA-MB-453
Summary of the method: (§2)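 Normalised viability is given for a single listed concentration of the series. In 384-well plates, breast cancer cell lines were incubated 72 h with compound, then read with CellTiter-Blue (2 h, 37 °C) at 560/590 nm. Per-plate scaling set vehicle to 100 and a positive kill control to 0, with Z'-factor quality control.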

MDA-MB-468 [10] = system: MDA-MB-468; remark: listed apart in the source
Summary of the method: as §2

MDA-MB-231 = system: MDA-MB-231
Summary of the method: as §2

Hs578T [11] = system: Hs578T; remark: listed apart in the source
Summary of the method: as §2

HDQ-P1 = system: HDQ-P1
Summary of the method: as §2

HCC1599 = system: HCC1599
Summary of the method: as §2

BT-549 = system: BT-549
Summary of the method: as §2

BT-474 [12] = system: BT-474; remark: listed apart in the source
Summary of the method: as §2

CAL-51 = system: CAL-51
Summary of the method: as §2

DU-4475 [13] = system: DU-4475; remark: listed apart in the source
Summary of the method: as §2

HCC1143 = system: HCC1143
Summary of the method: as §2

HCC1937 [14] = system: HCC1937; remark: listed apart in the source
Summary of the method: as §2

MDA-MB-436 [15] = system: MDA-MB-436; remark: listed apart in the source
Summary of the method: as §2

SK-BR-3 = system: SK-BR-3
Summary of the method: as §2

CAL-120 [16] = system: CAL-120; remark: listed apart in the source
Summary of the method: as §2

MFM-223 [17] = system: MFM-223; remark: listed apart in the source
Summary of the method: as §2

CAL-148 = system: CAL-148
Summary of the method: as §2

CAL-85-1 [18] = system: CAL-85-1; remark: listed apart in the source
Summary of the method: as §2

c1cc(CN2CCCNCCNCCCNCC2)ccc1CN1CCCNCCNCCCNCC1 [Plerixafor]
Details	normalised viability [%]
BT-474 [3], 25 nM	108
BT-474 [12], 2.5 nM	101
BT-474 [12], 250 nM	117
BT-474 [12], 2500 nM	97.6
BT-549, 2.5 nM	92.7
BT-549, 250 nM	95.9
BT-549, 2500 nM	120
CAL-51, 0.75 nM	106
CAL-51, 7.5 nM	99
CAL-51, 25 nM	103
CAL-85-1 [9], 2.5 nM	96.9
CAL-85-1 [18], 0.75 nM	91.9
CAL-85-1 [18], 7.5 nM	91.3
CAL-85-1 [18], 25 nM	89.2
CAL-120 [7], 25 nM	80.1
CAL-120 [16], 2.5 nM	93.1
CAL-120 [16], 250 nM	91.4
CAL-120 [16], 2500 nM	96
CAL-148, 0.75 nM	77.3
CAL-148, 7.5 nM	89.2
CAL-148, 25 nM	82.7
DU-4475 [4], 2.5 nM	93.1
DU-4475 [13], 0.75 nM	91.4
DU-4475 [13], 7.5 nM	97.3
DU-4475 [13], 25 nM	97.9
HCC1143, 2.5 nM	81
HCC1143, 250 nM	87.4
HCC1143, 2500 nM	83.2
HCC1599, 2.5 nM	107
HCC1599, 250 nM	98.7
HCC1599, 2500 nM	115
HCC1937 [5], 25 nM	102
HCC1937 [14], 2.5 nM	91.3
HCC1937 [14], 250 nM	103
HCC1937 [14], 2500 nM	111
HDQ-P1, 0.75 nM	106
HDQ-P1, 7.5 nM	123
HDQ-P1, 25 nM	111
Hs578T [2], 25 nM	93.4
Hs578T [11], 2.5 nM	117
Hs578T [11], 250 nM	97.3
Hs578T [11], 2500 nM	102
MDA-MB-231, 2.5 nM	89.1
MDA-MB-231, 250 nM	98.5
MDA-MB-231, 2500 nM	102
MDA-MB-436 [6], 25 nM	95.7
MDA-MB-436 [15], 2.5 nM	116
MDA-MB-436 [15], 250 nM	107
MDA-MB-436 [15], 2500 nM	118
MDA-MB-453, 0.75 nM	116
MDA-MB-453, 7.5 nM	114
MDA-MB-453, 25 nM	106
MDA-MB-468 [1], 25 nM	98.5
MDA-MB-468 [10], 2.5 nM	109
MDA-MB-468 [10], 250 nM	112
MDA-MB-468 [10], 2500 nM	108
MFM-223 [8], 25 nM	92.6
MFM-223 [17], 2.5 nM	109
MFM-223 [17], 250 nM	104
MFM-223 [17], 2500 nM	101
SK-BR-3, 2.5 nM	101
SK-BR-3, 250 nM	99.7
SK-BR-3, 2500 nM	106

CCN(CC)CCNC(=O)c1c(C)[nH]c(/C=C2\C(=O)Nc3ccc(F)cc32)c1C [Sunitinib]
Details	normalised viability
BT-474 [3], 10 nM	102% and 99.1%
BT-474 [12], 1 nM	110% and 97.1%
BT-474 [12], 100 nM	115% and 92.5%
BT-549, 1 nM	90.8% and 103%
BT-549, 100 nM	92.6% and 88.2%
BT-549, 1000 nM	89.9% and 111%
CAL-51, 0.3 nM	116% and 93.3%
CAL-51, 10 nM	107% and 91.1%
CAL-85-1 [9], 1 nM	95.3% and 104%
CAL-85-1 [18], 0.3 nM	92% and 101%
CAL-85-1 [18], 3 nM	90.5% and 104%
CAL-85-1 [18], 10 nM	98.1% and 98.9%
CAL-120 [7], 10 nM	91.8% and 108%
CAL-120 [16], 1000 nM	88.6% and 104%
CAL-148, 0.3 nM	92.3% and 103%
CAL-148, 3 nM	90.1% and 97.4%
CAL-148, 10 nM	89.6% and 111%
DU-4475 [4], 1 nM	104% and 92%
DU-4475 [13], 0.3 nM	99.7% and 88.2%
DU-4475 [13], 3 nM	92.5% and 88.1%
DU-4475 [13], 10 nM	108% and 95.7%
HCC1143, 100 nM	84.3% and 106%
HCC1599, 1 nM	113% and 97.3%
HCC1599, 100 nM	85.4% and 102%
HCC1599, 1000 nM	101% and 90.8%
HCC1937 [5], 10 nM	98.6% and 91%
HCC1937 [14], 1 nM	93.7% and 84.2%
HCC1937 [14], 100 nM	82.3% and 102%
HCC1937 [14], 1000 nM	84.5% and 93.2%
HDQ-P1, 0.3 nM	101% and 95.9%
HDQ-P1, 3 nM	85.3% and 98.3%
Hs578T [2], 10 nM	96.2% and 90.4%
Hs578T [11], 1 nM	106% and 100%
Hs578T [11], 100 nM	103% and 113%
Hs578T [11], 1000 nM	108% and 107%
MDA-MB-231, 1 nM	90.4% and 86.8%
MDA-MB-231, 100 nM	89% and 90.3%
MDA-MB-231, 1000 nM	114% and 112%
MDA-MB-436 [6], 10 nM	102% and 107%
MDA-MB-436 [15], 1 nM	94.5% and 114%
MDA-MB-436 [15], 100 nM	85.8% and 110%
MDA-MB-436 [15], 1000 nM	98.5% and 108%
MDA-MB-453, 3 nM	90.5% and 94.7%
MDA-MB-453, 10 nM	95.2% and 82%
MDA-MB-468 [1], 10 nM	100% and 107%
MDA-MB-468 [10], 1 nM	104% and 89.3%
MDA-MB-468 [10], 100 nM	104% and 95.4%
MDA-MB-468 [10], 1000 nM	100%
MFM-223 [8], 10 nM	93.5% and 87.9%
MFM-223 [17], 1 nM	101% and 105%
MFM-223 [17], 100 nM	91.4% and 96.6%
MFM-223 [17], 1000 nM	62.7% and 68.1%
SK-BR-3, 1 nM	94.8% and 101%
SK-BR-3, 100 nM	98.3% and 96.8%
SK-BR-3, 1000 nM	90.2% and 90.4%

Cc1ccc(Nc2nccc(N(C)c3ccc4c(C)n(C)nc4c3)n2)cc1S(N)(=O)=O [Pazopanib]
Details	normalised viability [%]
BT-474 [3], 100 nM	99.7
BT-474 [12], 10 nM	105
BT-474 [12], 1000 nM	109
BT-474 [12], 10000 nM	104
BT-549, 10 nM	86.8
BT-549, 1000 nM	86.6
BT-549, 10000 nM	45.6
CAL-51, 3 nM	108
CAL-51, 30 nM	103
CAL-51, 100 nM	99.9
CAL-85-1 [9], 10 nM	95.6
CAL-85-1 [18], 3 nM	92.2
CAL-85-1 [18], 30 nM	77.8
CAL-85-1 [18], 100 nM	95.3
CAL-120 [7], 100 nM	81.6
CAL-120 [16], 10 nM	85.5
CAL-120 [16], 1000 nM	91.2
CAL-120 [16], 10000 nM	97.5
CAL-148, 3 nM	78.5
CAL-148, 30 nM	88.9
CAL-148, 100 nM	82.1
DU-4475 [4], 10 nM	103
DU-4475 [13], 3 nM	97
DU-4475 [13], 30 nM	100
DU-4475 [13], 100 nM	104
HCC1143, 10 nM	76.5
HCC1143, 1000 nM	101
HCC1143, 10000 nM	60.7
HCC1599, 10 nM	96.5
HCC1599, 1000 nM	115
HCC1599, 10000 nM	104
HCC1937 [5], 100 nM	94
HCC1937 [14], 10 nM	86.7
HCC1937 [14], 1000 nM	92
HCC1937 [14], 10000 nM	94.3
HDQ-P1, 3 nM	107
HDQ-P1, 30 nM	103
HDQ-P1, 100 nM	99.2
Hs578T [2], 100 nM	86.5
Hs578T [11], 10 nM	117
Hs578T [11], 1000 nM	98.1
Hs578T [11], 10000 nM	90.8
MDA-MB-231, 10 nM	86.3
MDA-MB-231, 1000 nM	88.7
MDA-MB-231, 10000 nM	61.4
MDA-MB-436 [6], 100 nM	88.3
MDA-MB-436 [15], 10 nM	97.5
MDA-MB-436 [15], 1000 nM	77.4
MDA-MB-436 [15], 10000 nM	77.4
MDA-MB-453, 3 nM	97.7
MDA-MB-453, 30 nM	108
MDA-MB-453, 100 nM	102
MDA-MB-468 [1], 100 nM	104
MDA-MB-468 [10], 10 nM	106
MDA-MB-468 [10], 1000 nM	108
MDA-MB-468 [10], 10000 nM	99.4
MFM-223 [8], 100 nM	71.7
MFM-223 [17], 10 nM	86.8
MFM-223 [17], 1000 nM	51.8
MFM-223 [17], 10000 nM	58.6
SK-BR-3, 10 nM	98.4
SK-BR-3, 1000 nM	99
SK-BR-3, 10000 nM	88.1
